Source: article PMC11647907 (Journal of Medicinal Chemistry, 2024)

Tests used:
ClpP [1] = target: T1, ClpP (Homo sapiens, UniProt Q16740); assay: In vitro enzyme assay: ClpP peptidase activity with AC-WLA-AMC; format: biochemical; conditions: for EC50: EC50 (ClpP proteolytic activity), mean ± SD, n = 3
[2] = Liver microsomal stability, rat; format: in vitro ADME; conditions: rat liver microsomes
[3] = Liver microsomal stability, human; format: in vitro ADME; conditions: human liver microsomes
[4] = Liver microsomal stability, mice; format: in vitro ADME
HL60 cells [5] = assay: Cell cycle analysis; format: cell-based; conditions: 24 h
MOLM13 cells [6] = assay: Mitochondrial ROS; format: cell-based; conditions: MOLM13, 38 h
HL60 cells [7] = assay: Growth inhibition assay; format: cell-based
HL60 cells [8] = assay: Mitochondrial ROS; format: cell-based; conditions: HL60, 5 nM, 38 h, vs DMSO group
MOLM13 cells [9] = assay: Cell cycle analysis; format: cell-based; conditions: MOLM13, 24 h
HL60 cells [10] = assay: Mitochondrial membrane potential; format: cell-based; conditions: HL60, 10 nM, 48 h, vs DMSO group
ClpP [11] = target: T1, ClpP; assay: Biolayer interferometry; format: binding
PK study, oral 50 mg/kg = format: in vivo, ICR mice
ClpP in MOLM13 cells = ClpP in MOLM13 cells (Homo sapiens, UniProt Q16740); assay: Cellular thermal shift assay; format: cell-based; conditions: 10 μM, 6 h, vs control group
HL60 cells [12] = assay: HL60-disseminated leukemia model, survival; format: in vivo, NSG mice
[13] = system: SDHB and NDUFA12 in HL60 cells; assay: Western blotting of respiratory chain proteins, HL60; format: cell-based; conditions: 36 h
MOLM13 cells [14] = assay: Mitochondrial membrane potential; format: cell-based; conditions: MOLM13, 10 nM, 48 h, vs DMSO group
ClpP in HL60 cells = ClpP in HL60 cells (Homo sapiens, UniProt Q16740); assay: Cellular thermal shift assay; format: cell-based; conditions: 10 μM, 6 h, vs control group
MOLM13 cells [15] = assay: MOLM13-disseminated leukemia model, survival; format: in vivo, NSG mice; conditions: 10 mg/kg, p.o, qd, 18 days
[16] = system: SDHB and NDUFA12 in MOLM13 cells; assay: Western blotting of respiratory chain proteins, MOLM13; format: cell-based; conditions: 36 h
[17] = female, ICR, mouse, plasma, po, 50 mg/kg

T1 sequence (Q16740 57-277): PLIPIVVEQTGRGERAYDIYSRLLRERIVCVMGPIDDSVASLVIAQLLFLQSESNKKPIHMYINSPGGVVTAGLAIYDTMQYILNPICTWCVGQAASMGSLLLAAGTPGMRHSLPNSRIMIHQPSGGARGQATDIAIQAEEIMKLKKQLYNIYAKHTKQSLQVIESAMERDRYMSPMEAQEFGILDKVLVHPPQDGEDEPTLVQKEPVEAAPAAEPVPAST
ClpP in MOLM13 cells, sequence (Q16740 57-277): as above
ClpP in HL60 cells, sequence (Q16740 57-277): as above

Compound: CC(c1ccc(C(F)(F)F)cc1)N1C(=O)C2=C(CCN(Cc3ccccc3)C2)N2CCN=C21 (stereo not shown) [compound 3]
- EC50 (ClpP [1]): 2659 ± 11.7 nM

Compound: C[C@]12CC[C@H]3[C@@H](CCC4=CC(=O)CC[C@@]43C)[C@@H]1CC[C@@H]2O [testosterone, reference compound]
- Clapp [2]: 8634 mL/min/kg
- Clh [2]: 54.8 mL/min/kg
- Eh (%) [2]: 99.4%
- half-life [2]: 0.723 min
- Clapp [3]: 467 mL/min/kg
- Clh [3]: 19.8 mL/min/kg
- Eh (%) [3]: 95.8%
- Clapp ([4]; mice liver microsomes): 8634 mL/min/kg
- Clh ([4]; mice liver microsomes): 54.8 mL/min/kg
- Eh (%) ([4]; mice liver microsomes): 99.4%
- half-life ([4]; mouse, liver microsomes): 0.723 min

Compound: CC(c1ccccc1)N1CCC2=C(C1)C(=O)N(Cc1ccc(C(F)(F)F)cc1)C1=NCCN12 (stereo not shown) [compound 2]
- EC50 (ClpP [1]): 193 ± 18.9 nM

Compound: CC1CN(Cc2ccccc2)CC2=C1N1CCN=C1N(Cc1ccc(C(F)(F)F)cc1)C2=O (stereo not shown) [compound 4]
- EC50 (ClpP [1]): 1410 ± 20.5 nM

Compound: CC1(C)CN(Cc2ccccc2)CC2=C1N1CCN=C1N(Cc1ccc(C(F)(F)F)cc1)C2=O [compound 5]
- EC50 (ClpP [1]): 1650 ± 84.5 nM

Compound: C[C@@H]1CC2=C(CN1Cc1cccc(C#N)c1)C(=O)N(Cc1ccc(Br)cc1)C1=NCCN12 [CLPP-1071, (R)-3-((4-(4-Bromobenzyl)-8-methyl-5-oxo-1,2,4,5,8,9-hexahydroimidazo[1,2-a]pyrido[3,4-e]pyrimidin-7(6H)-yl)methyl)benzonitrile]
- percentage of cells arrested in G1 (HL60 cells [5]; HL60, 10 nM): 50%
- percentage of cells arrested in G1 (HL60 cells [5]; HL60, 100 nM): 60%
- ROS levels (MOLM13 cells [6]): significant increase in the ROS levels
- IC50 (HL60 cells [7]; read-out: HL60 IC50, HL60 cells, 72 h, mean ± SD, n = 3, listed as 52a): 4.61 ± 0.21 nM
- inhibition of proliferation of HL60 cells, fold stronger than ONC201 (HL60 cells [7]; vs ONC201): 169.2 fold
- ROS accumulation (HL60 cells [8]): pronounced elevation in ROS accumulation
- percentage of cells arrested in G1 (MOLM13 cells [9]; higher dose (dose not given)): 73%
- percentage of cells arrested in G1 (MOLM13 cells [9]; lower dose (dose not given)): 65%
- mitochondrial membrane potential (MMP) (HL60 cells [10]): significantly decreased MMP
- Kd (ClpP [11]): 26.9 nM
- AUC0–∞, times higher than that of ONC212 (PK study, oral 50 mg/kg; PO 50 mg/kg, mice): approximately 1.5 times
- AUC(0-inf) (PK study, oral 50 mg/kg; [17]): 9840 ± 990 ng·h/mL
- AUC(0-t) (PK study, oral 50 mg/kg; [17]): 9010 ± 1320 ng·h/mL
- Cmax (PK study, oral 50 mg/kg; [17]): 3420 ± 570 ng/mL
- MRT (PK study, oral 50 mg/kg; [17]): 157 ± 24.6 min
- Tmax (PK study, oral 50 mg/kg; [17]): 30 ± 25.8 min
- half-life (PK study, oral 50 mg/kg; [17]): 87 ± 19.8 min
- Clapp [2]: 906 mL/min/kg
- Clh [2]: 52.0 mL/min/kg
- Eh (%) [2]: 94.3%
- half-life [2]: 6.89 min
- thermal stability of ClpP (CETSA) (ClpP in MOLM13 cells): effectively stabilized ClpP protein at higher temperatures
- Clapp [3]: 296 mL/min/kg
- Clh [3]: 19.3 mL/min/kg
- Eh (%) [3]: 93.5%
- half-life [3]: 13.7 min
- survival of female NSG mice (HL60 cells [12]; HL60 model, 5 and 10 mg/kg, p.o, qd, 19 days): dose-dependently extended the survival
- survival periods in mice (HL60 cells [12]; disseminated model, 5 mg/kg, stronger effects compared to 10 mg/kg ONC212): significantly prolonged survival periods
- SDHB and NDUFA12 protein levels ([13]; HL60, 1 nM): decreased
- SDHB and NDUFA12 protein levels ([13]; HL60, 10 nM): mostly disappeared
- mitochondrial membrane potential (MMP) (MOLM13 cells [14]): significantly decreased MMP
- thermal stability of ClpP (CETSA) (ClpP in HL60 cells): effectively stabilized ClpP protein at higher temperatures
- EC50 (ClpP [1]): 23.5 nM
- ClpP agonistic activity, fold stronger than ONC201 (ClpP [1]; vs ONC201): 107.1 fold
- survival of female NSG mice (MOLM13 cells [15]): extended the survival
- SDHB and NDUFA12 protein levels ([16]; MOLM13, 1 nM): decreased
- SDHB and NDUFA12 protein levels ([16]; MOLM13, 10 nM): mostly disappeared
